Patent US20110166118A1, “NEW TRINEM ANTIBIOTICS AND INHIBITORS OF BETA-LACTAMASES” (LEK PHARMACEUTICALS D.D., priority 2008, published 2011)

Key:
[1] = molecular target: class A beta-lactamase SHV-1 (Escherichia coli, UniProt P0AD63); assay: IC50 determination with nitrocefin, SHV-1; assay type: biochemical, E. coli
Experimental: (§1) The IC50 value represents the concentration of inhibitor required to effect a 50% loss of activity of free enzyme. A standard test for the production of beta-lactamase involves use of the chromogenic cephalosporin, nitrocefin.
(§2) Homogeneously purified class A beta-lactamases TEM-1 and SHV-1 from E. coli and class C enzyme P99 from Enterobacter cloaca were employed in the assay.
(§3) All the enzymes and compounds were dissolved in 50 mM phosphate buffer pH 7.0 and all further dilutions were done with the same buffer solution. Enzyme and compound dilutions were pre-incubated for 30 min at 37° C. and in a final volume of 500 μl. Than 10 μl of 5 mM nitrocefin (reporter substrate) was added to the solution and the absorbance at 482 nm was measured during 2 to 5 minutes. The initial rate was calculated for all the different solutions.

[2] = molecular target: class A beta-lactamase TEM-1 (Escherichia coli, UniProt P62593); assay: IC50 determination with nitrocefin, TEM-1; assay type: biochemical, E. coli; conditions: pre-incubated 30 min at 37° C., phosphate buffer pH 7.0, nitrocefin
Experimental: as §1, §2, §3

[3] = molecular target: class C beta-lactamase P99 (AmpC) (Enterobacter cloacae, UniProt P05364); assay: biochemical; assay type: biochemical
Experimental: as §1, §2, §3

E. coli B308 = assay: Broth microdilution MIC, S12; assay type: cell-based; conditions: Escherichia coli, CAMHB, 35° C., 24 h, duplicate
Experimental: (§4) Stock solutions of the test compounds and Tazocin® were prepared in distilled water according to the CLSI guidelines [Methods for dilution antimicrobial tests for bacteria that grow aerobically. NCCLS document M7-A5; 2000; vol. 19. Clinical and Laboratory Standards Institute, Villanova, Pa.].
(§5) All tested strains and clinical isolates were either purchased from the American Type Culture Collection (ATCC), or from the in-house company culture collection. The tested strains were purely used for the purposes of illustrative example, and are by no means essential for performing the invention.
(§6) The strains were processed according to procedures recommended by ATCC, or procedures that are routinely used. Frozen bacterial stocks were thawed to room temperature, and a few drops were placed on an appropriate blood agar plate. The cultures were subcultured on a fresh Mueller-Hinton agar plate (MHA) the following day, and the subcultures were again incubated overnight.
(§7) Bacterial suspensions with a turbidity equivalent to that of a 0.5 McFarland standard were prepared by suspending a tiny portion of one colony from blood agar plates in 2 mL of sterile saline. […]
(§8) The in vitro activities of the antibiotics were determined by the broth microdilution method as recommended by CLSI guidelines. […]

E. coli B309 = assay: Broth microdilution MIC, S13; assay type: cell-based; conditions: Escherichia coli, CAMHB, 35° C., 24 h, duplicate
Experimental: as §4, §5, §6, §7, §8

K. pneumoniae Lek 22 = assay: Broth microdilution MIC, S18; assay type: cell-based; conditions: Klebsiella pneumoniae, LEK22, CAMHB, 35° C., 24 h, duplicate
Experimental: as §4, §5, §6, §7, §8

[4] = test system: E. caerogenes ATCC 29751 (class II); assay: Broth microdilution MIC, S4; assay type: cell-based; conditions: CAMHB, 35° C., 24 h, duplicate
Experimental: as §4, §5, §6, §7, §8

K. pneumoniae Lek 8 = assay: Broth microdilution MIC, S16; assay type: cell-based; conditions: Klebsiella pneumoniae, LEK8, CAMHB, 35° C., 24 h, duplicate
Experimental: as §4, §5, §6, §7, §8

[5] = test system: E. cloacae Lek 14, derepressed (AmpC); assay: Broth microdilution MIC, S2; assay type: cell-based; conditions: CAMHB, 35° C., 24 h, duplicate
Experimental: as §4, §5, §6, §7, §8

[6] = test system: C. freundii Lek 17 (AmpC); assay: Broth microdilution MIC, S19; assay type: cell-based; conditions: Citrobacter freundii, CAMHB, 35° C., 24 h, duplicate
Experimental: as §4, §5, §6, §7, §8

K. pneumoniae DSA 1461 = assay: Broth microdilution MIC, S7; assay type: cell-based; conditions: Klebsiella pneumoniae, DSA1461, CAMHB, 35° C., 24 h, duplicate
Experimental: as §4, §5, §6, §7, §8

E. faecalis ATCC 29212 = assay: Broth microdilution MIC, S5; assay type: cell-based; conditions: Enterococcus faecalis, ATCC29212, CAMHB, 35° C., 24 h, duplicate
Experimental: as §4, §5, §6, §7, §8

C. freundii B271 (SHV-5) = assay: Broth microdilution MIC, S9; assay type: cell-based; conditions: CAMHB, 35° C., 24 h, duplicate
Experimental: as §4, §5, §6, §7, §8

[7] = test system: K. pneumoniae B401 (TEM-10, TEM-12); assay: Broth microdilution MIC, S17; assay type: cell-based; conditions: Klebsiella pneumoniae, CAMHB, 35° C., 24 h, duplicate
Experimental: as §4, §5, §6, §7, §8

[8] = test system: ceftazidime-resistant strains; assay: Broth microdilution susceptibility assay, overall comparison; assay type: cell-based; conditions: in words, several ceftazidime-resistant strains tested
Experimental: as §4, §5, §6, §7, §8

C. freundii B318 (CTX-M) = assay: Broth microdilution MIC, S10; assay type: cell-based; conditions: Citrobacter freundii, CAMHB, 35° C., 24 h, duplicate
Experimental: as §4, §5, §6, §7, §8

E. faecium Lek 116 = assay: Broth microdilution MIC, S15; assay type: cell-based; conditions: Enterococcus faecium, LEK116, CAMHB, 35° C., 24 h, duplicate
Experimental: as §4, §5, §6, §7, §8

E. faecalis Lek 112 = assay: Broth microdilution MIC, S14; assay type: cell-based; conditions: Enterococcus faecalis, LEK112, CAMHB, 35° C., 24 h, duplicate
Experimental: as §4, §5, §6, §7, §8

E. cloacae Lek 24 (AmpC) = assay: Broth microdilution MIC, S1; assay type: cell-based; conditions: CAMHB, 35° C., 24 h, duplicate
Experimental: as §4, §5, §6, §7, §8

[9] = test system: K. pneumoniae ATCC 700603 (SHV-18); assay: Broth microdilution MIC, S8; assay type: cell-based; conditions: Klebsiella pneumoniae, ATCC700603, CAMHB, 35° C., 24 h, duplicate
Experimental: as §4, §5, §6, §7, §8

E. cloacae 4013 = assay: Broth microdilution MIC, S3; assay type: cell-based; conditions: Enterobacter cloacae, CAMHB, 35° C., 24 h, duplicate
Experimental: as §4, §5, §6, §7, §8

[10] = test system: K. pneumoniae B312 (SHV-18); assay: Broth microdilution MIC, S6; assay type: cell-based; conditions: Klebsiella pneumoniae, CAMHB, 35° C., 24 h, duplicate
Experimental: as §4, §5, §6, §7, §8

[11] = in words, compared to tazobactam

Sequence of class A beta-lactamase SHV-1 (P0AD63 22-286): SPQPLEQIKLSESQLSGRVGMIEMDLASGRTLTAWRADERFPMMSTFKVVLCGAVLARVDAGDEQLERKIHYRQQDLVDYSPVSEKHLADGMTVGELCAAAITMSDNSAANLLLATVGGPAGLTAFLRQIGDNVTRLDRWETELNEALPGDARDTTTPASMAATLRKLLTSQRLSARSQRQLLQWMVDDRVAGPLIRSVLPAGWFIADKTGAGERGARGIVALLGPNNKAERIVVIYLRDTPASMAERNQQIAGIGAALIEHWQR
Sequence of class C beta-lactamase P99 (AmpC) (P05364 21-381): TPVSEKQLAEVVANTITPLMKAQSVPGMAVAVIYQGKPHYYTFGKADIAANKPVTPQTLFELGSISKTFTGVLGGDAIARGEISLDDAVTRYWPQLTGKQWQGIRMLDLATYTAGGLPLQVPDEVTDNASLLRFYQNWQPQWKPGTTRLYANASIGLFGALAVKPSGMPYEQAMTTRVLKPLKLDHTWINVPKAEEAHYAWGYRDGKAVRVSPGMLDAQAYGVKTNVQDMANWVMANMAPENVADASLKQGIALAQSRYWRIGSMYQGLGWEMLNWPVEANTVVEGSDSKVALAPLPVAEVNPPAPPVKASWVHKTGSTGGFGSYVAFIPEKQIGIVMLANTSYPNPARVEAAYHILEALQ
Sequence of class A beta-lactamase TEM-1 (P62593 24-286 limits assumed): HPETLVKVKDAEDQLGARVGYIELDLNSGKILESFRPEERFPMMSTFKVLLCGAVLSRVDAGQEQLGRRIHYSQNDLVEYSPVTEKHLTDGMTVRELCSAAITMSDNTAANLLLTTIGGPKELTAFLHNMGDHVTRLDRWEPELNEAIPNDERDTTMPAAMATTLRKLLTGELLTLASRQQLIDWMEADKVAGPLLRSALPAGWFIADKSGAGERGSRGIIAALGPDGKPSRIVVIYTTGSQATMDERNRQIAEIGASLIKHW

Compound `CO[C@H]1CCC[C@H]2C1=C(C(=O)O)N1C(=O)[C@H]([C@H](O)C(F)(F)F)[C@@H]21` [LK-178, Sodium (4S,8S,9R,10S)-4-methoxy-10-[1-(S)-hydroxy-2,2,2-trifluoroethyl]-11-oxo-azatricyclo[7.2.0.0^3,8]undec-2-ene-2-carboxylate] has an IC50 [1] of 1100 nM, an IC50 [2] of 8400 nM and an IC50 [3] of 419 nM.

Compound `CO[C@H]1CCC[C@H]2C1=C(C(=O)[O-])N1C(=O)[C@H]([C@H](O)CF)[C@@H]21.[Na+]` [LK-180, Sodium salt of (4S,8S,9R)-4-methoxy-10-(1-(S)-hydroxy-fluoroethyl)-11-oxo-1-azatricyclo-[7.2.0.0 (3,8)]undec-2-ene-2-carboxylic acid] has an MIC (E. coli B308) of 4 µg/mL, an MIC (E. coli B309) of 4 µg/mL and an MIC (K. pneumoniae Lek 22) of 32 µg/mL. For the same compound, the MIC [4] was 16 µg/mL, the MIC (K. pneumoniae Lek 8) was 16 µg/mL and the “MIC S2” value [5] was 4 µg/mL. The MIC [6] was 8 µg/mL, the IC50 [1] was 12 nM and the “activity against SHV-1 enzyme as compared to tazobactam” value [1, 11] was “highly potentiated activity”. For the same compound, the MIC (K. pneumoniae DSA 1461) was 4 µg/mL, the MIC (E. faecalis ATCC 29212) was 4 µg/mL and the “MIC S9” value (C. freundii B271 (SHV-5)) was 16 µg/mL. The MIC [7] was 8 µg/mL, the “antibiotic activity compared to Tazocin®” value [8] was “superior to Tazocin®” and the IC50 [2] was 500 nM. The MIC (C. freundii B318 (CTX-M)) was 128 µg/mL, the MIC (E. faecium Lek 116) was 32 µg/mL and the IC50 [3] was 0.5 nM. For the same compound, the “activity against AmpC enzyme as compared to tazobactam” value [3, 11] was “highly potentiated activity”, the MIC (E. faecalis Lek 112) was 4 µg/mL and the “MIC S1” value (E. cloacae Lek 24 (AmpC)) was 4 µg/mL. The MIC (E. cloacae Lek 24 (AmpC); Enterobacter cloacae) was 8 µg/mL, the MIC [9] was 2 µg/mL and the MIC (E. cloacae 4013) was 64 µg/mL. The MIC [10] was 8 µg/mL.
